Key:
[1] = target: T1, human isoQC (S53-L382) (Homo sapiens, UniProt Q9NXS2); assay: Assay 2 - isoQC potency, mass spectrometry-based enzymatic potency assay; format: biochemical; conditions: mass spectrometry read-out, 7.5 nM isoQC, 10 μM H-Gln-AMC; read-out: isoQc Pot. Assay No. 2
T1 construct: enzymatically active region of human isoQC (S53-L382; see, e.g., Huang et al., 2011); GST-Enterokinase site (N, cleaved yes); made in house; host or cells: E. coli
Method: (§1) The Golgi luminal, enzymatically active region of human isoQC (S53-L382; see, e.g., Huang et al., 2011) was obtained by expression in E. coli of an N-terminally GST-Enterokinase and C-terminally 6×His tagged construct in the pET41(+) vector and subsequent purification using talon beads and GST beads, enterokinase digestion and further purification with a final formulation in 25 mM Tris pH 8.0/150 mM NaCl/1 mM TCEP. Absence of pyroglutamylating activity in an enzymatic dead variant that was cloned, expressed, and purified in parallel ruled out that the purification strategy isolates any endogenously present pyroglutamylating activity.
(§2) EC50's of test compounds were determined by incubating 11-point two-fold dilutions of test compound in 20 μL volumes in the presence of 7.5 nM isoQC and 10 μM H-Gln-AMC using 50 mM Tris-HCl pH 8.0 as assay buffer for 2 hours at room temperature before stopping the reaction by the addition of 2 volumes of methanol. Both the substrate and the product of this reaction were read out using an Agilent RapidFire microfluidic solid phase sample extraction system coupled to an AB Sciex API 4000 triple quadrupole mass spectrometer, in negative ion mode, at m/z of 301.9 and 284.9 respectively. The actual readout was defined as P/(S+P), where P is the product signal area and S the substrate signal area. EC50's were calculated by four parameter sigmoidal model fitting.

[2] = target: T2, recombinant human QC (Homo sapiens, UniProt Q16769); assay: Assay 4 - QC potency, mass spectrometry-based enzymatic potency assay; format: biochemical; conditions: mass spectrometry read-out; read-out: QC Pot. Assay No. 4
T2 construct: His6 (N); purchased R&D Systems
T2 sequence (Q16769 29-361): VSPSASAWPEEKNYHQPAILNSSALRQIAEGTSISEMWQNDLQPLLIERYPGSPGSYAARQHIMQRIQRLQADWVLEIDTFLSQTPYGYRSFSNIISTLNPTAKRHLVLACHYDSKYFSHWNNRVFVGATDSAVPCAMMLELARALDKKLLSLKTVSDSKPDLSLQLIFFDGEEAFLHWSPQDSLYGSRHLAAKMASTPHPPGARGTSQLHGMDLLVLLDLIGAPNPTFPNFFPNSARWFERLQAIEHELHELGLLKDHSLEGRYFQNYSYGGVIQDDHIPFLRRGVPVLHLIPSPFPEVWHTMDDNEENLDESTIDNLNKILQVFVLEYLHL
Method: as §2
EC50's of test compounds were determined in the same way as described in Assay 2 above, except that N-terminally His6-tagged recombinant human QC (R&D Systems) was used instead of isoQC.

[3] = target: T1, human isoQC (S53-L382); assay: Assay 1 - isoQC inhibition, fluorescent enzymatic assay (single concentration); format: biochemical; conditions: isoQC inhibition at 250 nM test compound; read-out: isoQc Inh. Assay No. 1
Method: Initially, isoQC inhibitory activity was measured at a single concentration in a fluorescent-based assay (Assay 1 below). In order to establish the inhibitory activity more quantitatively, IC50 values were obtained using a mass spectrometry-based assay where pyroglutamylation by either isoQC or QC was measured (Assays 2 and 4, respectively, below). Alternatively, IC50 values for isoQC or QC were obtained using a fluorescence-based assay (Assays 3 and 5 respectively, below).
as §1
Pyroglutamylation was measured by conversion of glutamine-4-amino-7-methylcoumarine (H-Gln-AMC, Bachem) to pyroglutamyl-AMC, which is subsequently a specific substrate for pyroglutamylaminopeptidase (pGAPase, Qiagen), releasing free AMC which can be fluorescently detected. For a typical inhibition assay, 15 μL 20 μM h-Gln-AMC (diluted from a 40 mM stock dissolved in 25 mM HEPES using 50 mM Tris-HCl pH 8.0) was pipetted into a 96-well plate on ice. Next, 7.5 μL 1 μM test compound (diluted from a 10 mM stock dissolved in DMSO using 50 mM Tris-HCl) was added. Finally, 7.5 μL, 3 ng/μL recombinant isoQC enzyme was added and the reaction mixture was incubated for 1 hour at 37° C. A 5 minute incubation at 98° C. was then performed to denature the isoQC enzyme and stop the reaction.
To detect the amount of pyroglutamyl-AMC formed, a 96-well plate was prepared with 25 μL 0.125 U/mL pGAPase enzyme diluted in 50 mM Tris-HCl pH 8.0 containing 10 mM dithiothreitol (DTT). 25 μL of the pyroglutamylation reaction mixture was transferred into the plate containing the pGAPase solutions while on ice. Once done, the plate was moved over to a Spectramax ID3 fluorescent plate-reader to monitor and record the maximum fluorescence at 380 nm excitation/450 nm emission over a period of 20 minutes while keeping the temperature at 37° C.
DMSO concentrations during the assay never exceeded 1% and activities were compared to controls containing only the same amount of DMSO and no test compound. […] Test compounds were reported as active when <40% of background corrected signal was measured as compared to DMSO controls.

[4] = tested on: pyroglutamylated CD47 (pE-CD47) in KBM7 cells; assay: Assay 6 - cell-based potency assay (pE-CD47 CC2C6 staining vs total CD47); design: species or system human; conditions: Homo sapiens, KBM-7, 72 h, CC2C6 signal, read-out: Cell Pot. Assay No. 6
Method: Cells were spun for 4 minutes at 1500 rpm and washed once with PBS/0.5% BSA. Cells were spun down again and the supernatant was removed and incubated in 100 uL antibody staining solution (PBS/0.5% BSA/0.1 μg/mL DAPI (4′,6-diamidino-2-phenylindole, ThermoFisher Scientific) and a mixture of 1:500 FITC-conjugated anti-human CD47 clone 2D3, which recognizes total CD47 irrespective of its pyroglutamylation state, and 1:500 Alexa647-conjugated anti-human CD47 clone CC2C6, which specifically detects pyroglutamylated CD47) for 2 hours at 4° C. Next, the cells were spun down and washed twice with 2×150 μL PBS/0.5% BSA to remove unbound antibody. Cells were again spun down and taken up in 300 μL FACS buffer before analysis on a Celesta FACS machine (BD Biosciences).
KBM7 cells (Kotecki et al., 1999) were infected with lentivirus produced by transfecting pSCNC-LentiCRISPR-QPCTL or pSCNC-LentiCRISPR-CD47 into HEK-293T cells according to standard protocols. After 24 hours incubation, cells were selected with puromycin (Invivogen, 1 μg/mL) for 48 hours. Cells were stained for total CD47 and pE-CD47 and QPCTL k.o. cells were sorted out as negative for pE-CD47, and CD47 k.o. cells as negative for total CD47, using a FACSAria III and FACS Diva software (BD Biosciences).
In order to test compounds for their effect on pyroglutamylation in live cells, 25000 KBM7 cells per well were seeded in a 96-well U-bottom plate in 150 μl IMDM/10% FCS/1% Pen/Strep medium and a 10-point 2-fold dilution range of test compounds. After 72 hours incubation at 37° C., 5% CO2, cells were stained for total CD47 and pE-CD47 and analyzed on a BD Celesta using FACS Diva software (BD Biosciences). Cells gated for DAPI negativity were recorded and the median fluorescence intensity (MFI) of each sample was transformed to linearly scale between the MFI's of wildtype and CD47 knockout cells (in case of the 2D3 antibody) and the wildtype and QPCTL knockout cells (in case of the CC2C6 antibody). IC50's were calculated by 3 parameter logistic regression of the CC2C6 signal vs. compound concentration, where the top of the sigmoidal curve was fixed at 1, using R and the drc package (http://www.r-project.org, https://cran.r-project.org/web/packages/drc/index.html).

T1 sequence (Q9NXS2 53-382): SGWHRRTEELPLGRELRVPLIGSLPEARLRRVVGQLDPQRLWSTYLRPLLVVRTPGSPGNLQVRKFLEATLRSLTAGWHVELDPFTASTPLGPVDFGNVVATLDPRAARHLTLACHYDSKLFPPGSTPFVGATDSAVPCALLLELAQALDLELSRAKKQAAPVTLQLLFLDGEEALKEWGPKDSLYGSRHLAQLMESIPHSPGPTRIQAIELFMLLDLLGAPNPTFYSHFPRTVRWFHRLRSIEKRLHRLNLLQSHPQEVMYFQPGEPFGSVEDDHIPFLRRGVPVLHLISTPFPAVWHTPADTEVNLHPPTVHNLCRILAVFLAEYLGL

| Compound | IC50 [1] [nM] | IC50 [2] [nM] | inhibition at 0.25 µM [3] [%] | IC50 [4] [nM] |
| --- | --- | --- | --- | --- |
| CCCOc1ccc(C2c3c(nn(C)c3C)C(=O)N2c2ccn3ccnc3c2)cc1 (centres unmarked) [FRPPO-009] | 25 to 100 | 100 to 5000 | > 40 | 1000 to 5000 |
| Cc1c2c(nn1C)C(=O)N(c1ccc3[nH]cnc3c1)C2c1ccc(N2CCC(C)(C)C2=O)cc1 (centres unmarked) [FRPPO-010] | 25 to 100 | 25 to 100 | > 40 | 1000 to 5000 |
| CCCOc1ccc(C2c3c(C)nn(C(C)C)c3C(=O)N2c2ccc3[nH]cnc3c2)cc1 (centres unmarked) [FRPPO-021] | – | – | ≤ 40 | 5000 to 50000 |
| CCCOc1ccc(C2c3c(C)nn(C4CCC4)c3C(=O)N2c2ccc3[nH]cnc3c2)cc1 (centres unmarked) [FRPPO-022] | – | – | ≤ 40 | 1000 to 5000 |
| CCCOc1ccc(C2c3c(C)nn(CC(F)(F)F)c3C(=O)N2c2ccc3[nH]cnc3c2)cc1 (centres unmarked) [FRPPO-023] | – | – | ≤ 40 | 5000 to 50000 |
| CCCOc1ccc(C2c3c(nn(CC(F)(F)F)c3C)C(=O)N2c2ccc3[nH]cnc3c2)cc1 (centres unmarked) [FRPPO-037] | – | – | > 40 | 1000 to 5000 |
| CCCOc1ccc(C2c3c(nn(CC(C)(C)F)c3C)C(=O)N2c2ccc3[nH]cnc3c2)cc1 (centres unmarked) [FRPPO-038] | – | – | > 40 | 1000 to 5000 |
| CC(C)c1c2c(nn1C)C(=O)N(c1ccc3[nH]cnc3c1)C2c1ccc(N2CCC(F)(F)C2)cc1F (centres unmarked) [FRPPO-152A] | – | – | – | < 1000 |
| CC(C)c1[nH]nc2c1C(c1ccc(N3CCC(F)(F)C3)cc1F)N(c1ccc3[nH]cnc3c1)C2=O (centres unmarked) [FRPPO-153] | – | – | – | < 1000 |
| Cc1c2c(nn1C)C(=O)N(c1ccc3[nH]cnc3c1)C2c1ccc(N2CCC(F)(F)C2)c(F)c1F (centres unmarked) [FRPPO-154] | – | – | – | < 1000 |
| Cc1c2c(nn1C)C(=O)N(c1ccc3[nH]cnc3c1)C2c1cccc(C2CCN(C)CC2)c1F (centres unmarked) [FRPPO-155] | – | – | – | 5000 to 50000 |
| CC(O)c1c2c(nn1C)C(=O)N(c1ccc3[nH]cnc3c1)C2c1ccc(N2CCC(F)(F)C2)cc1F (centres unmarked) [FRPPO-156] | – | – | – | < 1000 |
| Cn1nc2c(c1CO)C(c1ccc(N3CCC(F)(F)C3)cc1F)N(c1ccc3[nH]cnc3c1)C2=O (centres unmarked) [FRPPO-157] | – | – | – | < 1000 |
| Cc1nn(C)c2c1C(c1ccc(OCCC(F)F)c(F)c1F)N(c1ccc3[nH]cnc3c1)C2=O (centres unmarked) [FRPPO-167] | – | – | – | 1000 to 5000 |
| Cn1nc(C2CC2)c2c1C(=O)N(c1ccc3[nH]cnc3c1)C2c1ccc(N2CCC(F)(F)C2)cc1 (centres unmarked) [FRPPO-168] | – | – | – | 1000 to 5000 |
| Cc1nn(C)c2c1C(c1ccc(N3CCC(F)(F)C3)c(F)c1F)N(c1ccc3[nH]cnc3c1)C2=O (centres unmarked) [FRPPO-169] | – | – | – | 1000 to 5000 |
| Cc1nn(C)c2c1C(c1ccc(N3CCC(F)(F)C3)cc1F)N(c1ccc3[nH]cnc3c1)C2=O (centres unmarked) [FRPPO-170] | – | – | – | 1000 to 5000 |
| Cc1nn(C)c2c1C(c1ccc(-n3cc(C(F)(F)F)cn3)cc1)N(c1ccc3[nH]cnc3c1)C2=O (centres unmarked) [FRPPO-174] | – | – | – | 1000 to 5000 |
| Cc1nn(C)c2c1C(c1ccc(-c3cnn(C(F)(F)F)c3)cc1)N(c1ccc3[nH]cnc3c1)C2=O (centres unmarked) [FRPPO-175] | – | – | – | < 1000 |
| Cc1c2c(nn1C)C(=O)N(c1ccn3ccnc3c1)C2c1ccc(N2CCOC(C)C2)cc1F (centres unmarked) [FRPPO-197] | – | – | – | < 1000 |
| Cc1[nH]nc2c1C(c1ccc(-n3cc(C(F)(F)F)cn3)cc1F)N(c1ccn3ccnc3c1)C2=O (centres unmarked) [FRPPO-198] | – | – | – | < 1000 |

Other lines, results leading:

| IC50 [1] [nM] | IC50 [2] [nM] | inhibition at 0.25 µM [3] [%] | IC50 [4] [nM] | Compound |
| --- | --- | --- | --- | --- |
| 25 to 100 | 100 to 5000 | > 40 | < 1000 | CCCOc1ccc(C2c3c(nn(C)c3C)C(=O)N2c2ccc3[nH]cnc3c2)c(C)c1 (centres unmarked) [FRPPO-003] |
| < 25 | 25 to 100 | > 40 | < 1000 | CCCOc1ccc(C2c3c(nn(C)c3C)C(=O)N2c2ccc3[nH]cnc3c2)c(Cl)c1 (centres unmarked) [FRPPO-004] |
| 25 to 100 | 100 to 5000 | > 40 | < 1000 | CCCOc1ccc(C2c3c(nn(C)c3C3CC3)C(=O)N2c2ccc3[nH]cnc3c2)cc1 (centres unmarked) [FRPPO-006] |
| 25 to 100 | 25 to 100 | > 40 | < 1000 | CCCOc1ccc(C2c3c(nn(C)c3CC)C(=O)N2c2ccc3[nH]cnc3c2)cc1 (centres unmarked) [FRPPO-007] |
| – | – | > 40 | < 1000 | CCCOc1ccc(C2c3c(nn(C4CC4)c3C)C(=O)N2c2ccc3[nH]cnc3c2)cc1 (centres unmarked) [FRPPO-036] |
| – | – | – | < 1000 | Cc1c2c(nn1C1CC1)C(=O)N(c1ccc3[nH]cnc3c1)C2c1ccc(N2CCC(F)(F)C2)cc1F (centres unmarked) [FRPPO-127B] |
| – | – | – | < 1000 | Cc1c2c(nn1C1CC1)C(=O)N(c1ccc3[nH]cnc3c1)C2c1ccc(N2CCC(C(F)(F)F)CC2)cc1F (centres unmarked) [FRPPO-136] |
| – | – | – | < 1000 | Cc1c2c(nn1C1CC1)C(=O)N(c1ccc3[nH]cnc3c1)C2c1ccc(N2CCC(F)(F)CC2)cc1F (centres unmarked) [FRPPO-137] |
| – | – | – | < 1000 | Cc1c2c(nn1C)C(=O)N(c1ccc3[nH]cnc3c1)C2c1ccc(-c2ccc(OC(F)(F)F)nc2)cc1F (centres unmarked) [FRPPO-142A] |
| – | – | – | < 1000 | Cc1c2c(nn1C)C(=O)N(c1ccc3[nH]cnc3c1)C2c1ccc(-c2cnc(C(F)(F)F)s2)cc1F (centres unmarked) [FRPPO-144] |
| – | – | – | < 1000 | Cc1[nH]nc2c1C(c1ccc(-c3cnc(C(F)(F)F)s3)cc1F)N(c1ccc3[nH]cnc3c1)C2=O (centres unmarked) [FRPPO-145] |
| – | – | – | < 1000 | Cc1c2c(nn1C)C(=O)N(c1ccc3[nH]cnc3c1)C2c1ccc(-c2csc(C(F)(F)F)n2)cc1F (centres unmarked) [FRPPO-146] |
| – | – | – | < 1000 | Cc1[nH]nc2c1C(c1ccc(-c3csc(C(F)(F)F)n3)cc1F)N(c1ccc3[nH]cnc3c1)C2=O (centres unmarked) [FRPPO-147] |
| – | – | – | < 1000 | Cc1c2c(nn1C)C(=O)N(c1ccc3[nH]cnc3c1)C2c1ccc(-n2cc(C(F)(F)F)cn2)cc1F (centres unmarked) [FRPPO-150A] |
